Measurements reported in ChEMBL document CHEMBL6096706, “Discovery of WDR5-MLL1 and HDAC Dual-Target Inhibitors for the Treatment of Acute Myeloid Leukemia” (J Med Chem, 2025).
pIC50: −log10 of the molar value.

How the values were obtained:
MV4-11 [1] = experiment: cells; type: functional, cell-based; conditions: Homo sapiens, MV4-11, 72 h
Description: Antiproliferative activity against human MV4-11 cells assessed as inhibition of cell growth measured after 72 hrs by CellTiterGlo assay

MOLM-13 = experiment: cells; type: functional, cell-based; conditions: Homo sapiens, MOLM-13, 72 h
Description: Antiproliferative activity against human MOLM-13 cells assessed as inhibition of cell growth measured after 72 hrs by CellTiterGlo assay

[2] = biological target: Histone-lysine N-methyltransferase 2A/WDR5 (Homo sapiens, UniProt P61964); experiment: Inhibition of MLL1/WDR5 (unknown origin) protein-protein interaction incubated for 2 hrs by FP analysis; type: protein assay
Histone deacetylase 1 = Histone deacetylase 1 (Homo sapiens, UniProt Q13547); experiment: Inhibition of HDAC1 (unknown origin) by fluorescence based assay
Sequence of Histone deacetylase 1 (Q13547 whole entry): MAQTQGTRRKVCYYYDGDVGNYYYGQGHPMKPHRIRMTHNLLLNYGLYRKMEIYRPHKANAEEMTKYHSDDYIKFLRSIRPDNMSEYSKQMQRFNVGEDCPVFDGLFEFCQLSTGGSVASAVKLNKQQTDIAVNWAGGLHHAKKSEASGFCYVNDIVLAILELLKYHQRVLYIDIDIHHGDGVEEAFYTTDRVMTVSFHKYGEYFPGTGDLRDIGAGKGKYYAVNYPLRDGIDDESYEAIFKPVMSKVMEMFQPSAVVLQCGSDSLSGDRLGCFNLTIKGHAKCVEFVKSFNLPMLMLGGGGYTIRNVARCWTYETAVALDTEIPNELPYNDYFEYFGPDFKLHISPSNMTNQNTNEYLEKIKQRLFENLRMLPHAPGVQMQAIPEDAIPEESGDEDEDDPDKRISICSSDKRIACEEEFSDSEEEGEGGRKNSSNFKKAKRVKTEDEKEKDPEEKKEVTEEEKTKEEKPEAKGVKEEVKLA

[3] = biological target: T1, Protein deacetylase HDAC6 (Homo sapiens, UniProt Q9UBN7); experiment: Inhibition of HDAC6 (unknown origin) by fluorescence based assay
T1 sequence (Q9UBN7 whole entry): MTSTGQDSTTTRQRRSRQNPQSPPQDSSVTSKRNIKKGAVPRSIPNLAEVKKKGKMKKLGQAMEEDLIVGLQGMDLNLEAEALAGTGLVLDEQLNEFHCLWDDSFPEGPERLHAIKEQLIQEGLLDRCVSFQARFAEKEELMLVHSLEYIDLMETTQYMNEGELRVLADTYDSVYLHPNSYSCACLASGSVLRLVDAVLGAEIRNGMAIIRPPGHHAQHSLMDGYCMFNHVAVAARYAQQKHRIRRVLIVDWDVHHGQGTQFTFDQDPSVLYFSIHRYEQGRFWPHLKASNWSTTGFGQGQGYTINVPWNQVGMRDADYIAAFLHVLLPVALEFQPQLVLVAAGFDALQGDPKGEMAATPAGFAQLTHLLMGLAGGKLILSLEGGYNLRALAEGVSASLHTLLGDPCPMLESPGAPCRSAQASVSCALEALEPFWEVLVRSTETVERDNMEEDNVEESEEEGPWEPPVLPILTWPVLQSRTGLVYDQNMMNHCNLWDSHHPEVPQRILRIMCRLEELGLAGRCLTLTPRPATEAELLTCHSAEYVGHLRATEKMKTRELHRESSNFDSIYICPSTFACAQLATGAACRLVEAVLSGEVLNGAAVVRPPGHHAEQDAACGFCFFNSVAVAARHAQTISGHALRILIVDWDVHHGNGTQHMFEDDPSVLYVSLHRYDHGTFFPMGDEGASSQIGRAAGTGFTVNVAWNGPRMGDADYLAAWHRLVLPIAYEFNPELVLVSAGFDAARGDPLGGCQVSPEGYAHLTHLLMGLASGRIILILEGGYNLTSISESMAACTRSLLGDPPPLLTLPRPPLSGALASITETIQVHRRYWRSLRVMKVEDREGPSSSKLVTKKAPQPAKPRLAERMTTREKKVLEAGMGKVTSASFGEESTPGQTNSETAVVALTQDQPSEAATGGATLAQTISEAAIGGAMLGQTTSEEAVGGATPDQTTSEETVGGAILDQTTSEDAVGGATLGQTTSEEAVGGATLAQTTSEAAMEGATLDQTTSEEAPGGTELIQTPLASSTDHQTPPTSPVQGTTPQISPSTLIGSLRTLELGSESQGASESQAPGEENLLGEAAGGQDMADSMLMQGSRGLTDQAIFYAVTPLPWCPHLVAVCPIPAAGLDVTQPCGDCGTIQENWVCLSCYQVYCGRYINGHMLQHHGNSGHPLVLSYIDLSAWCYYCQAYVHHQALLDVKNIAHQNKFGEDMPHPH

Histone deacetylase 3 = Histone deacetylase 3 (Homo sapiens, UniProt O15379); experiment: Inhibition of HDAC3 (unknown origin) by fluorescence based assay
Sequence of Histone deacetylase 3 (O15379 whole entry): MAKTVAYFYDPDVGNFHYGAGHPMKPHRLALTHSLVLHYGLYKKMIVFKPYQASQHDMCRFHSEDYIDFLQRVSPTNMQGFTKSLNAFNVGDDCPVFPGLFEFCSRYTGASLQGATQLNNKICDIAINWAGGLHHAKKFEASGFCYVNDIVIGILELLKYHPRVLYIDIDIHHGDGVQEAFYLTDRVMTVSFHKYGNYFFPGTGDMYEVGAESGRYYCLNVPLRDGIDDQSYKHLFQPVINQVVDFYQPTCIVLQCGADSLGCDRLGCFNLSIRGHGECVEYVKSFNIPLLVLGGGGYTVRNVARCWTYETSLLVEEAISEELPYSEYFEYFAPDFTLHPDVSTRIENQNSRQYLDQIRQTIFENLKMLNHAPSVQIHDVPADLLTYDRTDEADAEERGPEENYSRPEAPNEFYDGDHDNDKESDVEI

Histone deacetylase 4 = Histone deacetylase 4 (Homo sapiens, UniProt P56524); experiment: Inhibition of HDAC4 (unknown origin) by fluorescence based assay
Sequence of Histone deacetylase 4 (P56524 whole entry): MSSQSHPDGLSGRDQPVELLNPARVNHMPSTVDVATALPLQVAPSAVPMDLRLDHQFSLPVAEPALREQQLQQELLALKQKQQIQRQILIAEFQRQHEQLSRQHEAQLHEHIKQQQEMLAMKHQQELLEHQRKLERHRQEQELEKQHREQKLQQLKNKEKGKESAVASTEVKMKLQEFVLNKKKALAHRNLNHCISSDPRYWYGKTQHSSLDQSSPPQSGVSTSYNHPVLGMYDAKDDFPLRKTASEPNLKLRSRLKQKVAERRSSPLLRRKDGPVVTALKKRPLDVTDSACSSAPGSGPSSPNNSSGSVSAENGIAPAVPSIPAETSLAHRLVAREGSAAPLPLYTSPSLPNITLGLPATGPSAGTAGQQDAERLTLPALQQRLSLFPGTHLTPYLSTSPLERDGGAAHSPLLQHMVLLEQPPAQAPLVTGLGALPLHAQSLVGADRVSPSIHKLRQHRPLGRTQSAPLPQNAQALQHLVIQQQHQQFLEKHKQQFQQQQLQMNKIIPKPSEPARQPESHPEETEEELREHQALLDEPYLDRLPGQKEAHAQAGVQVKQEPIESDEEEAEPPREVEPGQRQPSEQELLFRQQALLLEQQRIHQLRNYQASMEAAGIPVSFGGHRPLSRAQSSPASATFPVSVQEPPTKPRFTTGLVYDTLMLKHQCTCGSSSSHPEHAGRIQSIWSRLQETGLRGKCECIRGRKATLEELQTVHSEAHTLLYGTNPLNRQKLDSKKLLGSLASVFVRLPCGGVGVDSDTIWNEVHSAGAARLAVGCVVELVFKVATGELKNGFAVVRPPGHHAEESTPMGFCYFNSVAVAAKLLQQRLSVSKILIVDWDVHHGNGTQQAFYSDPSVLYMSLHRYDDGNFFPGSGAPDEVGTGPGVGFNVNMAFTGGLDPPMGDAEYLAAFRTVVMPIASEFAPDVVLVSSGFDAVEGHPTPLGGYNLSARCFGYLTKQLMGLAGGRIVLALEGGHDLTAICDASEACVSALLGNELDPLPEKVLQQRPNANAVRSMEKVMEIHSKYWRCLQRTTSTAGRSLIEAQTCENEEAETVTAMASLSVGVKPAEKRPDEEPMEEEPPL

Histone deacetylase 11 = biological target: T2, Histone deacetylase 11 (Homo sapiens, UniProt Q96DB2); experiment: Inhibition of HDAC11 (unknown origin) by fluorescence based assay
T2 sequence (Q96DB2 whole entry): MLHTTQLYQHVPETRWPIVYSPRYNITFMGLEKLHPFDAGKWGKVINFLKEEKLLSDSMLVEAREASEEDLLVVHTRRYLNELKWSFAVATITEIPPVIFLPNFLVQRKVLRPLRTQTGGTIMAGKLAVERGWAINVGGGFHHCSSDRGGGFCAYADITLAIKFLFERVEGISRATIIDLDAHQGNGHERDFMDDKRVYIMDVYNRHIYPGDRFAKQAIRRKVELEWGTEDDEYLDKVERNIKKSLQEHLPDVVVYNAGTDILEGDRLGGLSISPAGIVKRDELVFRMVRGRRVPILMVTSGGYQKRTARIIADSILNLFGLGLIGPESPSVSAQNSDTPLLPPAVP

Histone deacetylase 8 = biological target: T3, Histone deacetylase 8 (Homo sapiens, UniProt Q9BY41); experiment: Inhibition of HDAC8 (unknown origin) by fluorescence based assay
T3 sequence (Q9BY41 whole entry): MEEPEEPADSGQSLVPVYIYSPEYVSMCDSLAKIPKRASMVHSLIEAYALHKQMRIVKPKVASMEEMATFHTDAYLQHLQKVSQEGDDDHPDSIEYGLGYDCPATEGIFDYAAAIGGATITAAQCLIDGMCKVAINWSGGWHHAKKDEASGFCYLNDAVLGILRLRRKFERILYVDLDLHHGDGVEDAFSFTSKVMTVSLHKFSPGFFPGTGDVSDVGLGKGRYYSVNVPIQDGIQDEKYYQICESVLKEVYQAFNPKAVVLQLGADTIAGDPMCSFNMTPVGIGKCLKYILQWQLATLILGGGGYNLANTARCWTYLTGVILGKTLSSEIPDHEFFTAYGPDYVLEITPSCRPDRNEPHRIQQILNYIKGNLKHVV

Histone deacetylase 2 = Histone deacetylase 2 (Homo sapiens, UniProt Q92769); experiment: Inhibition of HDAC2 (unknown origin) by fluorescence based assay
Sequence of Histone deacetylase 2 (Q92769 whole entry): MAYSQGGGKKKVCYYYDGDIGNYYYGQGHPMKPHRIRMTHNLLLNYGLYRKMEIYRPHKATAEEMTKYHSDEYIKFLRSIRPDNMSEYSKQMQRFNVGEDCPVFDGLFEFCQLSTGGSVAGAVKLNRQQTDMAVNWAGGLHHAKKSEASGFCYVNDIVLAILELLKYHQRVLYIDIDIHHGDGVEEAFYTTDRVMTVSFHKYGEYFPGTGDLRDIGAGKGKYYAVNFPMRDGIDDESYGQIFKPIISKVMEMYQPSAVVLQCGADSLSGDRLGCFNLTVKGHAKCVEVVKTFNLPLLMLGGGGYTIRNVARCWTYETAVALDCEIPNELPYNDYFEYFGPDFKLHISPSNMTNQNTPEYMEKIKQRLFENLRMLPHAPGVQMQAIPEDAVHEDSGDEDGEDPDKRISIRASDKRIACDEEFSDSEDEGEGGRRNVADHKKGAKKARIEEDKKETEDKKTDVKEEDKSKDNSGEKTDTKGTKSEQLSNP

[4] = biological target: Histone-lysine N-methyltransferase 2A (Homo sapiens, UniProt Q03164); experiment: Inhibition of MLL1 (unknown origin) by fluorescence based assay
MV4-11 [5] = experiment: Induction of apoptosis in human MV4-11 cells assessed as early apoptotic cells at 200 nmol/L incubated for 72 hrs by Annexin V/PI staining based flow cytometry analysis (reference value: 4.17 %); type: functional
MV4-11 [6] = experiment: Induction of apoptosis in human MV4-11 cells assessed as late apoptotic cells at 200 nmol/L incubated for 72 hrs by Annexin V/PI staining based flow cytometry analysis (reference value: 5.14%); type: functional
MV4-11 [7] = experiment: Induction of apoptosis in human MV4-11 cells assessed as necrotic cells at 200 nmol/L incubated for 72 hrs by Annexin V/PI staining based flow cytometry analysis (reference value: 0.46%); type: functional
MV4-11 [8] = experiment: Induction of apoptosis in human MV4-11 cells assessed as viable cells at 200 nmol/L incubated for 72 hrs by Annexin V/PI staining based flow cytometry analysis (reference value: 90.23%); type: functional

Cc1c(F)c(N)cc(C(=O)Nc2cc(-c3ccc(NC(=O)Cc4ccc(/C=C/C(=O)NO)cc4)cc3)ccc2N2CCN(C)CC2)c1Cl
pIC50 (MV4-11 [1]): 6.94
pIC50 (MOLM-13): 6.51
pIC50 [2]: 7.16
pIC50 (Histone deacetylase 1): 6.08
pIC50 [3]: 6.80
pIC50 (Histone deacetylase 3): 6.18

Cc1c(F)c(N)cc(C(=O)Nc2cc(-c3ccc(NC(=O)c4ccc(CC(=O)NO)cc4)cc3)ccc2N2CCN(C)CC2)c1Cl
pIC50 [2]: 6.65

Cc1c(F)c(N)cc(C(=O)Nc2cc(-c3ccc(NC(=O)CCc4ccc(/C=C/C(=O)NO)cc4)cc3)ccc2N2CCN(C)CC2)c1Cl
pIC50 (MV4-11 [1]): 6.84
pIC50 (MOLM-13): 5.49
pIC50 [2]: 6.42
pIC50 (Histone deacetylase 1): 6.03
pIC50 [3]: 6.80
pIC50 (Histone deacetylase 3): 6.23

Cc1c(F)c(N)cc(C(=O)Nc2cc(-c3ccc(NC(=O)CCCCCC(=O)NO)cc3)ccc2N2CCN(C)CC2)c1Cl
pIC50 [2]: 6.74

Cc1c(F)c(N)cc(C(=O)Nc2cc(-c3ccc(C(=O)NCCCCC(=O)NO)cc3)ccc2N2CCN(C)CC2)c1Cl
pIC50 [2]: 7.40

Cc1c(F)c(N)cc(C(=O)Nc2cc(-c3ccc(C(=O)NCCCCCC(=O)NO)cc3)ccc2N2CCN(C)CC2)c1Cl
pIC50 [2]: 7.15

Cc1c(F)c(N)cc(C(=O)Nc2cc(-c3ccc(NC(=O)CCCCCCCC(=O)NO)cc3)ccc2N2CCN(C)CC2)c1Cl
pIC50 [2]: 6.64

Cc1c(F)c(N)cc(C(=O)Nc2cc(-c3ccc(NC(=O)CCCCC(=O)NO)cc3)ccc2N2CCN(C)CC2)c1Cl
pIC50 [2]: 7.48

Cc1c(F)c(N)cc(C(=O)Nc2cc(-c3ccc(NC(=O)CCCC(=O)NO)cc3)ccc2N2CCN(C)CC2)c1Cl
pIC50 [2]: 7.37

Cc1c(F)c(N)cc(C(=O)Nc2cc(-c3ccc(NC(=O)CCCCCCC(=O)NO)cc3)ccc2N2CCN(C)CC2)c1Cl
pIC50 (Histone deacetylase 4): 5.40
pIC50 (Histone deacetylase 11): 5.12
pIC50 (Histone deacetylase 8): < 5.00
pIC50 [2]: 7.39
pIC50 (Histone deacetylase 2): 7.00
pIC50 [4]: 6.41

Cc1c(F)c(N)cc(C(=O)Nc2cc(-c3ccc(C(=O)NCCCCCCC(=O)NO)cc3)ccc2N2CCN(C)CC2)c1Cl
pIC50 [2]: 7.40

Cc1c(F)c(N)cc(C(=O)Nc2cc(-c3ccc(C(=O)NCCCCCCCC(=O)NO)cc3)ccc2N2CCN(C)CC2)c1Cl
pIC50 [2]: 6.73

Cc1c(F)c(N)cc(C(=O)Nc2cc(-c3ccc(NC(=O)c4ccc(/C=C/C(=O)NO)cc4)cc3)ccc2N2CCN(C)CC2)c1Cl
pIC50 (MV4-11 [1]): 6.91
pIC50 (MOLM-13): 5.59
pIC50 [2]: 6.36
pIC50 (Histone deacetylase 1): 5.16
pIC50 [3]: 5.92
pIC50 (Histone deacetylase 3): 5.23

Cc1c(F)c(N)cc(C(=O)Nc2cc(-c3ccc(C(=O)Nc4ccccc4N)cc3)ccc2N2CCN(C)CC2)c1Cl
pIC50 [2]: 6.67

Cc1c(F)c(N)cc(C(=O)Nc2cc(-c3ccc(C(=O)NCCCC(=O)NO)cc3)ccc2N2CCN(C)CC2)c1Cl
pIC50 [2]: 7.52

Cc1c(F)c(N)cc(C(=O)Nc2cc(-c3ccc(NC(=O)Cc4ccc(C(=O)NO)cc4)cc3)ccc2N2CCN(C)CC2)c1Cl
pIC50 [2]: 7.06

Cc1c(F)c(N)cc(C(=O)Nc2cc(-c3ccc(NC(=O)c4ccccc4N)cc3)ccc2N2CCN(C)CC2)c1Cl
pIC50 [2]: 6.39
pIC50 (Histone deacetylase 3): 5.00

O=C(CCCCCCC(=O)Nc1ccccc1)NO [VORINOSTAT]
Activity (MV4-11 [5]): 14.43%
Activity (MV4-11 [6]): 20.55%
Activity (MV4-11 [7]): 1.42%
Activity (MV4-11 [8]): 63.59%
